In patent US8518953B2, “Aminopyrimidines useful as inhibitors of protein kinases” (Vertex Pharmaceuticals Incorporated, priority 2007, dated 2013):

How the values were obtained:
GSK-3β (AA 1-420) = biological target: T1, GSK-3β (AA 1-420) (Homo sapiens, UniProt P49841); test: GSK-3 Inhibition Assay (standard coupled enzyme system); assay type: biochemical; conditions: 20 μM ATP, 300 μM peptide, 20 nM GSK-3β, 30° C.
T1 construct: GSK-3β (AA 1-420)
Method: Compounds of the present invention were screened for their ability to inhibit GSK-3β (AA 1-420) activity using a standard coupled enzyme system (Fox et al., Protein Sci. 1998, 7, 2249). Reactions were carried out in a solution containing 100 mM HEPES (pH 7.5), 10 mM MgCl2, 25 mM NaCl, 300 μM NADH, 1 mM DTT and 1.5% DMSO. Final substrate concentrations in the assay were 20 μM ATP (Sigma Chemicals, St Louis, Mo.) and 300 μM peptide (American Peptide, Sunnyvale, Calif.). Reactions were carried out at 30° C. and 20 nM GSK-3β. Final concentrations of the components of the coupled enzyme system were 2.5 mM phosphoenolpyruvate, 300 μM NADH, 30 μg/ml pyruvate kinase and 10 μg/ml lactate dehydrogenase.
An assay stock buffer solution was prepared containing all of the reagents listed above with the exception of ATP and the test compound of the present invention. The assay stock buffer solution (175 μl) was incubated in a 96 well plate with 5 μl of the test compound of the present invention at final concentrations spanning 0.002 μM to 30 μM at 30° C. for 10 min. […] Rates of reaction were obtained using a Molecular Devices Spectramax plate reader (Sunnyvale, Calif.) over 10 min at 30° C. The Ki values were determined from the rate data as a function of inhibitor concentration.

GSK3α TYR 279 = biological target: T2, GSK3α TYR 279 (Homo sapiens, UniProt P49840); test: GSK-3α p-TYR Inhibition Assay (western blotting of Jurkat cells); assay type: cell-based; conditions: western blot, read-out: GSK3a pTYR 279: IC50
T2 construct: western blotting of Jurkat cells dosed with the compounds; endogenous in cells; host or cells: Jurkat cells
Method: (§1) Compounds are screened for their ability to inhibit the phosphorylation of tyrosine (TYR) residues through the use of western blotting of Jurkat cells dosed with the compounds. The phosphorylation of the specific TYR residues tested are GSK3α TYR 279 and GSK3β TYR 216.
(§2) Jurkat cells are seeded at a density of 2×10^5 cells/well in a 12 well dish in starvation media (RPMI+1% FBS+P/S). Following starvation for 16 hours, the compound is dosed into each well at a final DMSO concentration of 0.3% and cells are incubated o/n at 37° C. 5% CO2. The next day, cells are spun down at 1500 rpm, washed with PBS, and lysed in 100 uL Laemli sample buffer with β-mercaptoethanol.
(§3) 15 microliters (uL) of cell lysates are loaded onto a 10% tris-glycine gel and run at 120 v for 2 hours or until dye front runs off of the gel. The protein is then transferred onto a PVDF membrane at 100 v for 60 min. PBST (PBS containing 0.1% Tween 20, such as 1 ml Tween per 1 L of PBS) is then made up and used for all washes and antibody incubations. The blot is blocked in 5% nonfat milk PBST for one hour.
(§4) The primary antibody (GSK-3α/β pTYR 279/216 at 1:1000 dilution Upstate cat#05-413) is then added in […] PBST overnight at 4° C. with gentle rocking. The blot is then washed in PBST for 5 min. This is then repeated 4 times. […]

GSK3β TYR 216 = biological target: T3, GSK3β TYR 216 (Homo sapiens, UniProt P49841); test: GSK3β p-TYR Inhibition Assay (western blotting of Jurkat cells); assay type: cell-based; conditions: western blot, read-out: GSK3b pTYR 216: IC50
T3 construct: western blotting of Jurkat cells dosed with the compounds; endogenous in cells; host or cells: Jurkat cells
Method: as §1, §2, §3, §4

[1] = tested on: β-catenin dependent TCF/LEF transcriptional activity; test: β-Catenin Stabilization Protocol (β-lactamase reporter assay in Jurkat cells); assay type: cell-based; conditions: Homo sapiens, 460/530 ratio, read-out: Beta Catenin IC50
Text: GSK-3 phosphorylation of β-catenin targets it to the proteosome for degradation. Inhibition of GSK-3 results in accumulation of β-catenin in the cytosol of cells which through interaction with the transcription factor TCF/LEF translocates to the nucleus and drives the transcription of Wnt-dependent genes. The assay is designed to determine the level of β-catenin dependent TCF/LEF transcriptional activity in a quantitative manner through the use of a β-lactamase reporter assay in Jurkat cells dosed with a compound.
Jurkat β-catenin cells are starved overnight in assay media (1% FBS, 1× Penstrep, RPMI) in the flask. The next day Jurkat β-catenin cells are seeded in 96 well flat bottom plates at a density of 50,000 cells/well in assay media in a volume of 100 ul. The compound is added to the well at a final DMSO concentration of 0.75% and incubated at 37° C. o/n. The next day, 20 uL of 6×CCF4 dye is added to the wells and incubated at room temperature for 1-2 hours. Plates are read on the Cytofluor 4000 series multiwell plate reader and the 460/530 ratio is determined.

[2] = tested on: rat brains after transient middle cerebral artery occlusion; conditions: rat brains after transient MCAO; cited from earlier work

T3 sequence (P49841 whole entry): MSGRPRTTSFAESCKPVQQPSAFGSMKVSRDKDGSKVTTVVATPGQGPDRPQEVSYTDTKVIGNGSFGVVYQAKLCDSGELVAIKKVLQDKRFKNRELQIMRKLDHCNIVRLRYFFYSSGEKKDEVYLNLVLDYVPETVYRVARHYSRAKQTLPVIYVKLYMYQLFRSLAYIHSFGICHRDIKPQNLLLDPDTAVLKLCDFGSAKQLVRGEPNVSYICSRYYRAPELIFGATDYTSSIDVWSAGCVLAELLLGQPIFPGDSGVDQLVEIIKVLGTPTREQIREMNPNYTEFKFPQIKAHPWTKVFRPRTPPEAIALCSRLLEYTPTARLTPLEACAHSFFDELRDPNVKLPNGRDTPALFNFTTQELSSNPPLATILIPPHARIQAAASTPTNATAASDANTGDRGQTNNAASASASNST
T1 sequence (P49841 whole entry, species assumed, the tested form may be a part): as the sequence (P49841 whole entry) above
T2 sequence (P49840 whole entry): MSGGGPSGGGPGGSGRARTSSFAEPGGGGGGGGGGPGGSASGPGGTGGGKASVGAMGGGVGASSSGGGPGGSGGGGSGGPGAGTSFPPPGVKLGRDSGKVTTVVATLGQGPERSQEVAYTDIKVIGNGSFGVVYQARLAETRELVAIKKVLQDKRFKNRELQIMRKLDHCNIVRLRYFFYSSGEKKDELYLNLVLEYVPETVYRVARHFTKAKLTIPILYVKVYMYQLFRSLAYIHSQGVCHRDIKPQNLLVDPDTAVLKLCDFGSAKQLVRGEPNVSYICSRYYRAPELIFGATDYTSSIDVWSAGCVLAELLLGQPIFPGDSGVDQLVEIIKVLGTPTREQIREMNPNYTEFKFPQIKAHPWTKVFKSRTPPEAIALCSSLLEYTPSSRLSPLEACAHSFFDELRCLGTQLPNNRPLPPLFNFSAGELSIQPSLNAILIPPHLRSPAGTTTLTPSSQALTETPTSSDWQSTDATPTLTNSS

Ki (GSK-3β (AA 1-420)) | IC50 (GSK3α TYR 279) | IC50 (GSK3β TYR 216) | IC50 [1] | Molecule | infarct size [2]
< 5 nM | 2 nM | 30 nM | 940 nM | CCc1c(C)nc(-c2ccccc2Cl)nc1Nc1n[nH]c2ncc(F)cc12 [Compound I-2] | 
 |  |  |  | IGF-1: insulin growth factor-1, a known GSK-3 inhibitor | reduced infarct size
